# Laboratory results as given in patent publication US20260125389A1, “MEMBRANE-ASSOCIATED TYROSINE AND THREONINE KINASE INHIBITOR AND USE THEREOF” (HAINAN SIMCERE ZAIMING PHARMACEUTICAL CO., LTD., priority 2022, published 2026).
# System: HCC1569 cells
# Assay: Inhibition of tumor cell proliferation (CTG, HCC1569)
# Format: cell-based
# Details: Homo sapiens, 168 h, 7 days incubation, CTG readout, read-out: IC50 of compounds for inhibition of HCC1569 cell growth
# Protocol: Experimental principle: The compound was incubated with tumor cells for 7 days, and ATP in viable cells was quantified using the CTG kit from Promega to evaluate the effect of the compound on tumor cell proliferation.
# Experimental method: The cultured cells were resuspended after being rinsed with PBS (for adherent cells) and digested with 0.25% Trypsin-EDTA, followed by cell counting to determine cell density and viability. 3000 HCC1569 cells/well were diluted with RPMI Medium 1640 containing 10% FBS, added to a 96-well plate (90 μL/well), and cultured in an incubator at 37° C. with 5% CO2 for 24 h. The test compound was diluted to different concentrations in dimethyl sulfoxide (DMSO) and added to a 96-well plate. Thus, the final concentration of the compound in the reaction system started at 25 μM and was subjected to a 4-fold serial dilution, with the final DMSO concentration maintained at 0.25%. The compound and cells were further incubated at 37° C. with 5% CO2 for 7 days. 50 μL/well of CTG was then added to measure the inhibitory effect of the compound on tumor cell growth, and the inhibition rate and half-maximal inhibitory concentration (IC50) were calculated.
# The % compound inhibition was calculated and fitted using XLfit software to obtain the IC50 of the compound.
# Blank wells and DMSO wells were set up. The blank well contained 100 μL of RPMI Medium 1640 with 10% FBS, where the inhibition rate of the compound on tumor cell growth was considered 100%. The DMSO well contained 0.25% DMSO added to the cell well, where the inhibition rate of the compound on tumor cell growth was considered 0%.
row,SMILES,IC50 [nM]
1,"Cc1nc2c3c(c(N)n(-c4c(C)ccc(O)c4C)c3n1)C(=O)Nc1c-2cnn1C [Compound 12, 5-amino-4-(3-hydroxy-2,6-dimethylphenyl)-2,8-dimethyl-7,8-dihydro-1,3,4,7,8,9-hexaazabenzo[cd]cyclopenta[f]azulen-6(4H)-one]",9.2
2,"Cc1nc2c3c(c(N)n(-c4c(C)ccc(O)c4C)c3n1)C(=O)Nc1nn(C)cc1-2 [Compound 13, 2-amino-1-(3-hydroxy-2,6-dimethylphenyl)-6,9-dimethyl-4,6-dihydro-1,4,5,6,8,10-hexaazabenzo[cd]cyclopenta[f]azulen-3(1H)-one]",27.3
3,"Cc1nc2c3c(c(N)n(-c4c(C)ccc(O)c4C)c3n1)C(=O)Nc1nn(CC(F)(F)F)cc1-2 [Compound 14, 2-amino-1-(3-hydroxy-2,6-dimethylphenyl)-9-methyl-6-(2,2,2-trifluoroethyl)-4,6-dihydro-1,4,5,6,8,10-hexaazabenzo[cd]cyclopenta[f]azulen-3(1H)-one]",254
4,"Cc1nc2c3c(c(N)n(-c4c(C)ccc(O)c4C)c3n1)C(=O)Nc1c(F)cncc1-2 [Compound 16, 5-amino-8-fluoro-4-(3-hydroxy-2,6-dimethylphenyl)-2-methyl-4,7-dihydro-6H-1,3,4,7,10-pentaazadibenzo[cd,f]azulen-6-one]",264
5,"Cc1nc2c3c(c(N)n(-c4c(C)ccc(O)c4C)c3n1)C(=O)Nc1cccnc1-2 [Compound 20, 5-amino-4-(3-hydroxy-2,6-dimethylphenyl)-2-methyl-4,7-dihydro-6H-1,3,4,7,11-pentaazadibenzo[cd,f]azulen-6-one]",25.5
6,"Cc1nc2c3c(c(N)n(-c4c(C)ccc(O)c4C)c3n1)C(=O)NCc1nc(C(F)(F)F)ccc1-2 [Compound 29, 2-amino-1-(3-hydroxy-2,6-dimethylphenyl)-11-methyl-7-(trifluoromethyl)-4,5-dihydro-1,4,6,10,12-pentaazabenzo[4,5]cyclooctatetraeno[1,2,3-cd]inden-3(1H)-one]",562
7,"Cc1nc2c3c(c(N)n(-c4c(C)ccc(O)c4C)c3n1)C(=O)NCc1nc(OC3CC3)ccc1-2 [Compound 31, 2-amino-7-cyclopropoxy-1-(3-hydroxy-2,6-dimethylphenyl)-11-methyl-4,5-dihydro-1,4,6,10,12-pentaazabenzo[4,5]cyclooctatetraeno[1,2,3-cd]inden-3(1H)-one]",297
8,"Cc1nc2c3c(c(N)n(-c4c(C)ccc(O)c4C)c3n1)C(=O)Nc1c-2cnn1C1CC1 [Compound 33, 5-amino-8-cyclopropyl-4-(3-hydroxy-2,6-dimethylphenyl)-2-methyl-7,8-dihydro-1,3,4,7,8,9-hexaazabenzo[cd]cyclopenta[f]azulen-6(4H)-one]",49
9,"Cc1nc2c3c(c(N)n(-c4c(C)ccc(O)c4C)c3n1)C(=O)Nc1c-2c(C)nn1C [Compound 34, 2-amino-1-(3-hydroxy-2,6-dimethylphenyl)-5,7,9-trimethyl-4,5-dihydro-1,4,5,6,8,10-hexaazabenzo[cd]cyclopenta[f]azulen-3(1H)-one]",9.1
10,"Cc1nc2c3c(c(N)n(-c4c(C)ccc(O)c4C)c3n1)C(=O)Nc1sncc1-2 [Compound 37, 5-amino-4-(3-hydroxy-2,6-dimethylphenyl)-2-methyl-4,7-dihydro-6H-8-thia-1,3,4,7,9-pentaazabenzo[cd]cyclopenta[f]azulen-6-one]",33.8
11,"Cc1nc2c3c(c(N)n(-c4c(C)ccc(O)c4C)c3n1)C(=O)Nc1scnc1-2 [Compound 38, 5-amino-4-(3-hydroxy-2,6-dimethylphenyl)-2-methyl-4,7-dihydro-6H-8-thia-1,3,4,7,10-pentaazabenzo[cd]cyclopenta[f]azulen-6-one]",92

# Results, then the molecule that gave them:
row,IC50 [nM],SMILES
1,293,"Cc1nc2c3c(c(N)n(-c4c(C)ccc(O)c4C)c3n1)C(=O)NCc1ccccc1-2 [Compound 3, 2-amino-1-(3-hydroxy-2,6-dimethylphenyl)-11-methyl-4,5-dihydro-1,4,10,12-tetraazabenzo[4,5]cyclooctatetraeno[1,2,3-cd]inden-3(1H)-one]"
2,240,"Cc1nc2c3c(c(N)n(-c4c(C)ccc(O)c4C)c3n1)C(=O)NCc1ncccc1-2 [Compound 4, 2-amino-1-(3-hydroxy-2,6-dimethylphenyl)-11-methyl-4,5-dihydro-1,4,6,10,12-pentaazabenzo[4,5]cyclooctatetraeno[1,2,3-cd]inden-3(1H)-one]"
3,539,"Cc1nc2c3c(c(N)n(-c4c(C)ccc(O)c4C)c3n1)C(=O)NCc1cnccc1-2 [Compound 5, 2-amino-1-(3-hydroxy-2,6-dimethylphenyl)-11-methyl-4,5-dihydro-1,4,7,10,12-pentaazabenzo[4,5]cyclooctatetraeno[1,2,3-cd]inden-3(1H)-one]"
4,768,"Cc1nc2c3c(c(N)n(-c4c(C)ccc(O)c4C)c3n1)C(=O)NCc1nn(C)cc1-2 [Compound 8, 2-amino-1-(3-hydroxy-2,6-dimethylphenyl)-7,10-dimethyl-1,4,5,7-tetrahydro-3H-1,4,6,7,9,11-hexaazacyclopenta[4,5]cyclooctatetraeno[1,2,3-cd]inden-3-one]"
5,210,"Cc1ccc2c(n1)CNC(=O)c1c(N)n(-c3c(C)ccc(O)c3C)c3nc(C)nc-2c13 [Compound 9, 2-amino-1-(3-hydroxy-2,6-dimethylphenyl)-7,11-dimethyl-4,5-dihydro-1,4,6,10,12-pentaazabenzo[4,5]cyclooctatetraeno[1,2,3-cd]inden-3(1H)-one]"
6,59.2,"COc1cccc2c1CNC(=O)c1c(N)n(-c3c(C)ccc(O)c3C)c3nc(C)nc-2c13 [Compound 11, 2-amino-1-(3-hydroxy-2,6-dimethylphenyl)-6-methoxy-11-methyl-4,5-dihydro-1,4,10,12-tetraazabenzo[4,5]cyclooctatetraeno[1,2,3-cd]inden-3(1H)-one]"
7,24.6,"Cc1nc2c3c(c(N)n(-c4c(C)ccc(O)c4C)c3n1)C(=O)Nc1ncccc1-2 [Compound 17, 5-amino-4-(3-hydroxy-2,6-dimethylphenyl)-2-methyl-4,7-dihydro-6H-1,3,4,7,8-pentaazadibenzo[cd,f]azulen-6-one]"
8,11,"Cc1nc2c3c(c(N)n(-c4c(C)ccc(O)c4C)c3n1)C(=O)Nc1cnccc1-2 [Compound 18, 5-amino-4-(3-hydroxy-2,6-dimethylphenyl)-2-methyl-4,7-dihydro-6H-1,3,4,7,9-pentaazadibenzo[cd,f]azulen-6-one]"
9,50,"Cc1nc2c3c(c(N)n(-c4c(C)ccc(O)c4C)c3n1)C(=O)Nc1ccncc1-2 [Compound 19, 5-amino-4-(3-hydroxy-2,6-dimethylphenyl)-2-methyl-4,7-dihydro-6H-1,3,4,7,10-pentaazadibenzo[cd,f]azulen-6-one]"
10,24.9,"COc1nccc2c1CNC(=O)c1c(N)n(-c3c(C)ccc(O)c3C)c3nc(C)nc-2c13 [Compound 23, 2-amino-1-(3-hydroxy-2,6-dimethylphenyl)-6-methoxy-11-methyl-4,5-dihydro-1,4,7,10,12-pentaazabenzo[4,5]cyclooctatetraeno[1,2,3-cd]inden-3(1H)-one]"
11,131,"Cc1nc2c3c(c(N)n(-c4c(C)ccc(O)c4C)c3n1)C(=O)NCc1c(C#N)cccc1-2 [Compound 27, 2-amino-1-(3-hydroxy-2,6-dimethylphenyl)-11-methyl-3-oxo-1,3,4,5-tetrahydro-1,4,10,12-tetraazabenzo[4,5]cyclooctatetraeno[1,2,3-cd]indene-6-carbonitrile]"
12,70,"Cc1nc2c3c(c(N)n(-c4c(C)ccc(O)c4C)c3n1)C(=O)NCc1nc(C3CC3)ccc1-2 [Compound 28, 2-amino-7-cyclopropyl-1-(3-hydroxy-2,6-dimethylphenyl)-11-methyl-4,5-dihydro-1,4,6,10,12-pentaazabenzo[4,5]cyclooctatetraeno[1,2,3-cd]inden-3(1H)-one]"
13,308,"COc1c(F)ccc2c1CNC(=O)c1c(N)n(-c3c(C)ccc(O)c3C)c3nc(C)nc-2c13 [Compound 30, 2-amino-7-fluoro-1-(3-hydroxy-2,6-dimethylphenyl)-6-methoxy-11-methyl-4,5-dihydro-1,4,10,12-tetraazabenzo[4,5]cyclooctatetraeno[1,2,3-cd]inden-3(1H)-one]"
14,798,"Cc1nc2c3c(c(N)n(-c4c(C)ccc(O)c4C)c3n1)C(=O)NCc1nc(CO)ccc1-2 [Compound 32, 2-amino-1-(3-hydroxy-2,6-dimethylphenyl)-7-(hydroxymethyl)-11-methyl-4,5-dihydro-1,4,6,10,12-pentaazabenzo[4,5]cyclooctatetraeno[1,2,3-cd]inden-3(1H)-one]"
15,40.5,"CCc1nccc2c1CNC(=O)c1c(N)n(-c3c(C)ccc(O)c3C)c3nc(C)nc-2c13 [Compound 35, 2-amino-6-ethyl-1-(3-hydroxy-2,6-dimethylphenyl)-11-methyl-4,5-dihydro-1,4,7,10,12-pentaazabenzo[4,5]cyclooctatetraeno[1,2,3-cd]inden-3(1H)-one]"
16,63.8,"Cc1nc2c3c(c(N)n(-c4c(C)ccc(O)c4C)c3n1)C(=O)NCc1c-2ccnc1C [Compound 36, 2-amino-1-(3-hydroxy-2,6-dimethylphenyl)-6,11-dimethyl-4,5-dihydro-1,4,7,10,12-pentaazabenzo[4,5]cyclooctatetraeno[1,2,3-cd]inden-3(1H)-one]"
